From patent US11357749B2, “Methods for treating neutropenia” (Enzychem Lifesciences Corporation, priority 2014, dated 2022)

Assays:
[1] = test system: p38 MAPK; assay: p38 MAPK phosphorylation, western blot in IgE-antigen stimulated RBL-2H3 cells; type: cell-based; conditions: PLAG pre-incubated RBL-2H3 cells, IgE-antigen complex stimulation
Procedure: Dephosphorylation of p38 MAPK and ERK1/2 in PLAG-treated RBL-2H3 cells is determined by western blot analysis using anti-phospho-p38 and anti-phospho-ERK1/2 respectively. To activate the p38 and ERK1/2 in RBL-2H3 cells, the cells are sensitized with 50 ng/mL of anti-DNP-IgE overnight. After washing with PBS three times, 20 ng/ml of DNP-HSA is added. Each cell lysate for western blot is prepared in the PLAG-treated RBL-2H3 cells in a dose-dependent manner and incubated for the same time (15 min). β-actin is used as internal controls. ERK1/2 and p38 phosphorylation start immediately after IgE-antigen complex stimulation and remain sufficiently activated for 5 min.

[2] = test system: platelets; assay: Phenylhydrazine-induced platelet reduction in mice; type: in vivo; conditions: PHZ 100 mg/kg i.p. + PLAG 5 mg/kg oral
Procedure: Mice are injected with 100 mg/kg phenylhydrazine (PHZ), i.p., to induce anemia and reduction of platelets. 5 mg/kg PLAG is administered to the mice orally and blood samples are taken at 3 and 13 days after. In addition, for comparison, normal mice which are not treated with phenylhydrazine are prepared as a normal group, and mice treated with PHZ and olive oil instead of PLAG are prepared as a control group. The blood samples taken from the mice are treated with 0.5 ml EDTA (Minicollect tube, Greiner bio-one, Austria) and concentration of platelet is measured using automated blood sample analyzer BC-6800 (Mindray, Shenzhen, China) by number of platelet per […] (k: 1,000).

[3] = test system: bone marrow-derived HSC; assay: In vitro colony formation in bone marrow-derived HSC; type: cell-based
[4] = test system: Complement 3; assay: Clinical study in healthy subjects: Complement 3 in blood; type: in vivo, human
Procedure: A clinical study is conducted in Gwandong University MyungJi Hospital Clinical Study Center in Republic of Korea with 27 healthy patients to study immune-modulating effect of PLAG. Volunteers are tested for 30 days in vivo as oral administer (500 mg of PLAG per day) under a legitimate clinical approval. Complement 3 is counted using C3 assay kit. The analysis result is shown in FIG. 7, and change of immunoactivity by the administration of PLAG in healthy subjects is shown in Table 8 (effect of PLAG supplementation on immune function of peripheral blood after 4-wk intervention). As shown in FIG. 7 and Table 8, the majority of those who consume PLAG for a month (twenty-six (26) subjects out of 27 patients) show decreased complement 3 (C3), while the control group, who are treated with soybean oil, show both increase and decrease of C3.

[5] = test system: neutrophils, lymphocytes and eosinophils; assay: Neutrophil, lymphocyte and eosinophil ratio after Tamoxifen and PLAG in mice; type: in vivo; conditions: Tam 100 mg/kg + PLAG 5 mg/kg, after 15 hours
Procedure: 100 mg/kg of anticancer agent Tamoxifen (Tam) is used to induce reduction of neutrophils, followed by treated with 5 mg/kg of PLAG and the ratios of neutrophil (NEU), lymphocyte (LYM), and eosinophil (EOS) are measured after 15 hours as in the previous experiment.

[6] = stated as known; cited from earlier work
[7] = test system: neutrophils; assay: Pilot study in pancreatic cancer patients receiving chemotherapy: neutrophils (ANC); type: in vivo, human; conditions: 16 patients, Gemcitabine and Erlotinib, PLAG 1,000 mg once per day orally, two cycles
Procedure: PLAG is administered to sixteen pancreatic cancer patients after chemotherapy. The subjects of this study are unoperable pancreatic cancer patients with ECOG (Eastern Cooperative Oncology Group) performance status of “0” or “1”, i.e. patients in good physical condition without much pain, able to enjoy almost normal lifestyle and thus, eligible for anticancer treatment for at least 2 months. The pancreatic cancer patients are “locally advanced” patients having tumor metastasis to the major vessels around pancreas or “Distant metastasis” patients with distant metastasis to liver, lung, bone, etc. ECOG performance status “0” refers to a patient who is asymptomatic, fully active, able to carry on all predisease activities without restriction with no pain and no problem for normal lifestyle, while “1” refers to a patient who is symptomatic but completely ambulatory with mile pain and a little problem for normal life. Anticancer (Gemcitabine and Erlotinib combo treatment) Regimen is as follows: 1,000 mg of Gemcitabine is injected once a week for three weeks (Day 1, Day 8, Day 15), and is not injected in the next one week (Day 22). Therefore, 1 cycle of anticancer treatment requires 1 month. 100 mg of Erlotinib (Tarceva) is administered once per day everyday orally. 1,000 mg of PLAG is also administered once per day orally, starting from 3 days before anticancer treatment until the last chemotherapy treatment. The PLAG treatment group and control group both completed two cycles of anticancer treatment. There is no difference among the control and PALG treatment groups in the amount or schedule of anticancer treatment.

[8] = test system: STAT6; assay: IL-4 induced STAT6 phosphorylation, western blot in U937, A549 and Jurkat cells; type: cell-based; conditions: PLAG 0.01 to 10 μg/ml, 10 ng/ml IL-4, 15 min
Procedure: (§1) Dephosphorylation of STAT6 is examined using anti-phosphorylated STAT6 in U937, A549, and Jurkat cell lysates treated with PLAG concentration from 0.01 to 10 μg/ml. Phosphorylation of STAT6 is induced by treatment with 10 ng/ml of IL-4. Dephosphorylation of STAT1 is examined in the U937 cell lysate treated with PLAG (0.01 to 10 μg/ml). Phosphorylation of STAT1 is induced by 10 ng of IFN-γ treatment. Dephosphorylation of STAT1 and STAT6 is examined at 15 min after stimulation with IFN-γ and IL-4 respectively, in the PLAG pretreated cells. […] The transcriptional activity of STAT6 is decreased by the dephosphorylation of STAT6. […] No effect of PLAG on STAT1 phosphorylation is observed.

[9] = test system: STAT1; assay: IFN-γ induced STAT1 phosphorylation, western blot in U937 cells; type: cell-based; conditions: PLAG 0.01 to 10 μg/ml, 10 ng IFN-γ, 15 min
Procedure: as §1

CCCCC/C=C\C/C=C\CCCCCCCC(=O)OC(COC(C)=O)COC(=O)CCCCCCCCCCCCCCC (racemic) [PLAG, 1-palmitoyl-2-linoleoyl-3-acetylglycerol]
p38 phosphorylation [1]: down-regulated | Platelet (day 3) Conc ([2]; day 3): 1072 ± 125.4 k/ul | Platelet (day 13) Conc ([2]; day 13): 1188.8 ± 115.6 k/ul | colony formation [3]: increased colony formation | subjects showing decreased complement 3 (C3) ([4]; 500 mg PLAG per day oral for a month): 26 subjects out of 27 | decrease of average concentration of C3 in blood ([4]; after administration of PLAG 500 mg per day, 30 days): about 10 mg/dL | C3, After ([4]; healthy subjects n = 27, 500 mg PLAG per day oral, after 4-wk intervention): 99.7 ± 12.4 mg/dL | C3, Before ([4]; healthy subjects n = 27, before PLAG supplementation): 109.5 ± 13.0 mg/dL | Eosinophil Ratio [5]: 15.1 ± 0.3% | Lymphocyte ratio [5]: 45.7 ± 4.1% | Neutrophil Ratio [5]: 35.2 ± 2.4% | toxicity in GLP toxicity test [6]: no toxicity | patients with neutrophil (ANC) decrease to less than 1,500/μl [7]: 37.5% | patients with neutrophil decrease to less than 500/μl [7]: none | patients with neutrophil decrease to less than 1,000/μl [7]: 18.8% | patients with neutrophil number decrease to less than 50% [7]: 37.5% | patients with neutrophil number decrease to less than 60% [7]: 18.8% | patients with neutrophil number decrease to less than 75% [7]: none | IL-4 induced STAT6 phosphorylation ([8]; A549 cells): inhibited with increasing PLAG concentrations | IL-4 induced STAT6 phosphorylation ([8]; Jurkat cells): inhibited with increasing PLAG concentrations | IL-4 induced STAT6 phosphorylation ([8]; U937 cells): inhibited with increasing PLAG concentrations | STAT1 phosphorylation [9]: No effect
